The test system of one data set is Trichomonas vaginalis. In words: In vitro trichomonicidal susceptibility assay (trophozoite growth inhibition). Format: cell-based, Trichomonas vaginalis strain GT3. Conditions: for SI = CC50/IC50 T. vaginalis: CC50 VERO cells / IC50 T. vaginalis; for IC50: Trichomonas vaginalis, trophozoites, 48 h incubation then 48 h subculture, means of three experiments, read-out: IC50 T. vaginalis. The protocol: (§1) G. intestinalis strain IMSS:0696:1 and T. vaginalis strain GT3 were cultured in TYI-S-33 medium, complemented with 10% calf serum and bovine bile. […] Subsequently, trophozoites were washed and subcultured for another 48 h in fresh medium without any drugs. Once this time was reached, trophozoites were counted and the median inhibitory concentration (IC50) was calculated. All the experiments were completed in triplicate.

A short description of data set [1]: Cytotoxicity on VERO cell line (sulforhodamine B method). Format: cell-based, mammalian. Conditions: African green monkey, 1–100 µM, means of three experiments. The procedure: We cultivated 1.5 × 10^4 VERO cells in a 96-well plate and incubated in DMEM media complemented with 10% fetal bovine serum, 100 µg/mL streptomycin, and 100 UI/mL penicillin. The culture was incubated at 37 °C in a 5% CO2 atmosphere with 95% humidity for 48 h. […] After 48 h of incubation, viability of the cells was estimated using the sulforhodamine B method. The concentration of the compounds that killed 50% of the cells (CC50) was calculated by nonlinear fit (GraphPad Prism 4 software). All concentrations were evaluated in triplicate.
In general terms: In SRB staining, fixed cells bind dye roughly in proportion to their protein.

The subject of a further data set is Giardia duodenalis. In words: In vitro giardicidal susceptibility assay (trophozoite growth inhibition). Format: cell-based, Giardia duodenalis (G. intestinalis strain IMSS:0696:1). Conditions: for SI = CC50/IC50 G. duodenalis: CC50 VERO cells / IC50 G. duodenalis; for IC50: trophozoites, 48 h incubation then 48 h subculture, means of three experiments, read-out: IC50 G. duodenalis. The procedure:
as §1

We go through 12 compounds from PMC7071106 (Molecules, 2020).

Like-named read-outs stand apart in the source and are kept apart here.

Broadly, the IC50 is the concentration needed to halve the response being measured. Usually CC50 stands for the concentration at which the toxic effect on the cells reaches its halfway point. As usually defined, the melting point is the temperature of the solid-liquid transition.

Turning to `Cc1ncc([N+](=O)[O-])n1CCOC(=O)NC1CCCCC1` [Compound 1, 2-(2-methyl-5-nitro-1H-imidazol-1-yl)ethyl cyclohexylcarbamate], the “SI = CC50/IC50 T. vaginalis” value in the data set on Trichomonas vaginalis is reported as greater than 1666. The half-maximal inhibitory concentration (IC50) in the data set on Trichomonas vaginalis was determined as 0.06 ± 0.01 µM; in the data set on Giardia duodenalis (Giardia duodenalis, 48 h), 0.46 ± 0.01 µM. Also, in data set [1] (VERO cells), the CC50 at 48 h was greater than 100 µM. In the data set with Giardia duodenalis, the “SI = CC50/IC50 G. duodenalis” value is greater than 217.
Regarding `Cc1ncc([N+](=O)[O-])n1CCOC(=O)Nc1ccccc1` [Compound 2, 2-(2-methyl-5-nitro-1H-imidazol-1-yl)ethyl phenylcarbamate], in the data set on Trichomonas vaginalis, the “SI = CC50/IC50 T. vaginalis” value is greater than 1111 and the IC50 was 0.09 ± 0.01 µM. Besides, in data set [1] (VERO cells), the CC50 at 48 h was greater than 100 µM. Moreover, in the data set with Giardia duodenalis, the “SI = CC50/IC50 G. duodenalis” value was greater than 102 and the IC50 was 0.98 ± 0.01 µM.
On to `Cc1ncc([N+](=O)[O-])n1CCOC(=O)Nc1ccc(Cl)cc1` [Compound 3, 2-(2-methyl-5-nitro-1H-imidazol-1-yl)ethyl (4-chlorophenyl)carbamate], for which, in the data set with Trichomonas vaginalis, the “SI = CC50/IC50 T. vaginalis” value was greater than 55 and the IC50 came out at 1.79 ± 0.12 µM. The compound further showed a CC50 at 48 h in data set [1] (VERO cells) greater than 100 µM. In the data set on Giardia duodenalis, the “SI = CC50/IC50 G. duodenalis” value is recorded as greater than 87. The IC50 in the data set on Giardia duodenalis (Giardia duodenalis, 48 h) was 1.14 ± 0.12 µM.
Taken in the same sequence, the figures for `Cc1ncc([N+](=O)[O-])n1CCOC(=O)Nc1ccc(F)cc1` [Compound 4, 2-(2-methyl-5-nitro-1H-imidazol-1-yl)ethyl (4-fluorophenyl)carbamate] were greater than 31, 3.22 ± 0.21 µM, greater than 100 µM, greater than 49 and 2.03 ± 0.01 µM.
Consider `Cc1ncc([N+](=O)[O-])n1CCOC(=O)Nc1ccc([N+](=O)[O-])cc1` [Compound 5, 2-(2-methyl-5-nitro-1H-imidazol-1-yl)ethyl (4-nitrophenyl)carbamate], for which, in the data set with Trichomonas vaginalis, the “SI = CC50/IC50 T. vaginalis” value is greater than 16 and the IC50 was determined as 6.25 ± 0.12 µM. Also, the CC50 at 48 h in data set [1] (read-out: CC50 VERO Cells) is greater than 100 µM. For the same compound, the “SI = CC50/IC50 G. duodenalis” value in the data set with Giardia duodenalis was greater than 41. Besides, the IC50 with Giardia duodenalis (Giardia duodenalis, 48 h) is 2.43 ± 0.02 µM.
The compound `Cc1ncc([N+](=O)[O-])n1CC(C)OC(=O)NC1CCCCC1` (centres unmarked) [Compound 6, 1-methyl-2-(2-methyl-5-nitro-1H-imidazol-1-yl)ethyl cyclohexylcarbamate] returned a melting point of 219.2 to 222.7 °C. Also, in the data set on Trichomonas vaginalis, the “SI = CC50/IC50 T. vaginalis” value is greater than 11 and the IC50 came out at 8.64 ± 0.73 µM. Moreover, the CC50 at 48 h in data set [1] (VERO cells) was greater than 100 µM. Besides, the “SI = CC50/IC50 G. duodenalis” value with Giardia duodenalis was greater than 37. The IC50 in the data set with Giardia duodenalis (Giardia duodenalis, 48 h) amounted to 2.64 ± 0.61 µM.
Compound `Cc1ncc([N+](=O)[O-])n1CC(C)OC(=O)Nc1ccccc1` (centres unmarked) [Compound 7, 1-methyl-2-(2-methyl-5-nitro-1H-imidazol-1-yl)ethyl phenylcarbamate] showed a melting point of 238.9 to 240.5 °C. Further, in the data set with Trichomonas vaginalis, the “SI = CC50/IC50 T. vaginalis” value is listed as greater than 15 and the IC50 is 6.52 ± 0.71 µM. The CC50 at 48 h in data set [1] (VERO cells) was greater than 100 µM. Further, the “SI = CC50/IC50 G. duodenalis” value in the data set on Giardia duodenalis is given as greater than 59. In addition, in the data set on Giardia duodenalis (Giardia duodenalis, 48 h), the 50% inhibitory concentration (IC50) was 1.67 ± 0.21 µM.
For `Cc1ncc([N+](=O)[O-])n1CC(C)OC(=O)Nc1ccc(Cl)cc1` (centres unmarked) [Compound 8, 1-methyl-2-(2-methyl-5-nitro-1H-imidazol-1-yl)ethyl (4-chlorophenyl)carbamate], the melting point is 268.1 °C (dec.). In the data set on Trichomonas vaginalis, the “SI = CC50/IC50 T. vaginalis” value is on record as greater than 16 and the IC50 came to 5.93 ± 0.51 µM. In data set [1] (VERO cells), this compound yielded a CC50 at 48 h greater than 100 µM. The “SI = CC50/IC50 G. duodenalis” value with Giardia duodenalis is reported as greater than 24. Besides, the IC50 with Giardia duodenalis (Giardia duodenalis, 48 h) turned out to be 4.05 ± 0.24 µM.
With `Cc1ncc([N+](=O)[O-])n1CC(C)OC(=O)Nc1ccc(F)cc1` (centres unmarked) [Compound 9, 1-methyl-2-(2-methyl-5-nitro-1H-imidazol-1-yl)ethyl (4-fluorophenyl)carbamate], the melting point lay within 162.3 to 163.5 °C. Also, in the data set with Trichomonas vaginalis, the “SI = CC50/IC50 T. vaginalis” value is given as greater than 20 and the IC50 is 4.82 ± 1.08 µM. The CC50 at 48 h in data set [1] (VERO cells) is greater than 100 µM. Also, in the data set on Giardia duodenalis, the “SI = CC50/IC50 G. duodenalis” value is given as greater than 30. Also, in the data set with Giardia duodenalis (Giardia duodenalis, 48 h), the IC50 was determined as 3.23 ± 0.11 µM.
On to `Cc1ncc([N+](=O)[O-])n1CC(C)OC(=O)Nc1ccc([N+](=O)[O-])cc1` (centres unmarked) [Compound 10, 1-methyl-2-(2-methyl-5-nitro-1H-imidazol-1-yl)ethyl (4-nitrophenyl)carbamate], for which the melting point is 235.4 °C (dec.). Further, in the data set on Trichomonas vaginalis, the “SI = CC50/IC50 T. vaginalis” value is greater than 10 and the IC50 amounted to 9.99 ± 0.56 µM. For the same compound, the CC50 at 48 h in data set [1] (read-out: CC50 VERO Cells) is greater than 100 µM. For the same compound, in the data set on Giardia duodenalis, the “SI = CC50/IC50 G. duodenalis” value is greater than 116. Further, in the data set on Giardia duodenalis (Giardia duodenalis, 48 h), the IC50 came out at 0.86 ± 0.09 µM.
As for `Cc1ncc([N+](=O)[O-])n1CCO` [Metronidazole, metronidazole, reference compound], in the data set with Trichomonas vaginalis, the IC50 was found to be 0.93 ± 0.12 µM. In data set [1] (VERO cells), this compound registered a CC50 at 48 h greater than 100 µM.
As to `Cc1ncc([N+](=O)[O-])n1CC(C)O` (centres unmarked) [Secnidazole, secnidazole, reference compound], in the data set with Trichomonas vaginalis, the “SI = CC50/IC50 T. vaginalis” value is given as greater than 7 and the IC50 was 13.5 ± 1.23 µM. In data set [1] (VERO cells), this compound had a CC50 at 48 h greater than 100 µM. The “SI = CC50/IC50 G. duodenalis” value in the data set with Giardia duodenalis is given as greater than 24. For the same compound, the IC50 in the data set on Giardia duodenalis (Giardia duodenalis, 48 h) was determined as 4.11 ± 0.12 µM.
